Data: US20080279907A1, “Antimicrobial medical devices and methods for making and using same” (Ash Access Technology, Inc., priority 2007, published 2008)

Legend:
[1] = Perfusion of parabens and methylene blue through polycarbonate membrane in perfusion chamber (HPLC of lower chamber); format: physicochemical
Procedure: An experiment was performed to determine a method for perfusing methylene blue, methyl paraben, and propyl paraben through a polycarbonate membrane with causing only minimal changes to the strength and elasticity of the membrane. In FIG. 12, there is illustrated a perfusion chamber system 50 used during the experiment. System 50 includes an upper chamber 51 and a lower chamber 52 separated by a polycarbonate membrane 53 having a thickness of 0.60 mm. The upper and lower chambers 51, 52 are generally structured to hold 10.5 cm^3 or 10.5 ml of fluid. The upper chamber 51 was connected to a peristaltic pump (not shown) and the lower chamber 52 was filled with distilled water. First and second solutions, respectively including the parabens and the methylene blue, were prepared in accordance with the method set forth in EXAMPLE 6 above. As best seen in Tables 6 and 7 below, the solutions were connected to the pump and passed through the first chamber 51 at a constant rate at 37° C. over various lengths of time.
Table 6 includes data obtained from HPLC analysis comparing the methyl paraben, propyl paraben, and methylene blue concentrations in the lower chamber 52. The parameters for the methyl and propyl paraben and methylene blue treatments are indicated in the left hand columns.

[2] = Desorption of parabens from paraben impregnated polycarbonate catheter pieces in 0.24 M sodium citrate pH 6.2 (HPLC); format: physicochemical
Procedure: One inch polycarbonate catheter pieces including a surface area of about 4.64 cm^2 were impregnated with methyl paraben and propyl paraben. A solution of 100% 1,2-propanediol was prepared with 9% methyl paraben and 2% propyl paraben. Pairs of the one inch catheter pieces were placed into three 25 ml flasks including 10 ml of the 1,2-propanediol and paraben solution. The flasks including the catheter pieces were placed on a shaker at 220 rpm and 27° C. for two, four, or nine hour time periods. At the end of each time period, the catheter pieces were removed, rinsed with distilled water, and dried.
Desorption analysis of the paraben impregnated catheter pieces was performed in 0.24 M sodium citrate with a pH of 6.2. The total amount of either methyl paraben or propyl paraben released from the catheter pieces was calculated using HPLC analysis performed with a Waters Alliance 2690 including a 996 Photodiode Array Detector. Each calculation used a solution of HPLC grade H2O, methanol (MeOH), and acetonitrile (CAN) which were pre-filtered through a Millipore 0.45 μm nylon filter before use. Trifluoracetic acid (TFA) was added to H2O and acetonitrile (ACN) to 0.1%. A Waters Symmetry column (C8 3.9×150 mm, 5 μm) was applied with a Waters guard column (Waters, Sentry Guard column, Nova-Pak C18, 60A, 4 μm 3.9×20 mm).
A gradient of 67% H2O/33% ACN was used for 6.5 min, ramped to 45 %/55% from 6.5 to 7.0 min, and kept at 45%/55% until 15.0 min, at 15.0 min the concentration reverted to 67%/33%, and the system was run until 18 min. Injection volume for each sample was 10 μl and samples and column were run at ambient temperature.
Table 2 includes the graphical data represented in FIG. 8 and associated with the desorption of propyl paraben from the paraben impregnated catheter pieces prepared as discussed above. Again, the samples were impregnated only with parabens and desorbed in 10 ml 0.24 M Na-citrate, pH 6.2 over time.

[3] = lower chamber, 20% PG/80% DI H2O (0.9% MP, 0.2% PP) ~9 hrs at 37 C., then MB ~10 days

Compound: CCCOC(=O)c1ccc(O)cc1 [PP, propyl paraben]
- time until perfused through the membrane and detected in the lower chamber ([1]; 0.60 mm polycarbonate membrane, 37° C.): within two hours
- PP conc [1, 3]: 0.01 mg/mL
- Total mg PP in 10.5 ml lower chamber [1, 3]: 0.105 mg
- desorption by the end of the study ([2]; nearly 3 months, FIGS. 8 and 9): negligible desorption
- period of significant release ([2]; paraben impregnated catheter pieces, 0.24 M Na-citrate pH 6.2): 20 days
- Total PP released (mg)/1″ catheter ([2]; treatment 2 hrs (100% PG, 9% MP, 2% PP), time 1 hour): 0.048 mg/1″ catheter
- Total PP released (mg)/1″ catheter ([2]; treatment 2 hrs (100% PG, 9% MP, 2% PP), time 3 hours): 0.081 mg/1″ catheter
- Total PP released (mg)/1″ catheter ([2]; treatment 2 hrs (100% PG, 9% MP, 2% PP), time 7 hours): 0.121 mg/1″ catheter
- Total PP released (mg)/1″ catheter ([2]; treatment 2 hrs (100% PG, 9% MP, 2% PP), time 24 hours): 0.121 mg/1″ catheter
- Total PP released (mg)/1″ catheter ([2]; treatment 2 hrs (100% PG, 9% MP, 2% PP), time 4 days): 0.153 mg/1″ catheter
- Total PP released (mg)/1″ catheter ([2]; treatment 2 hrs (100% PG, 9% MP, 2% PP), time 5 days): 0.182 mg/1″ catheter
- Total PP released (mg)/1″ catheter ([2]; treatment 2 hrs (100% PG, 9% MP, 2% PP), time 6 days): 0.209 mg/1″ catheter
- Total PP released (mg)/1″ catheter ([2]; treatment 2 hrs (100% PG, 9% MP, 2% PP), time 8 days): 0.239 mg/1″ catheter
- Total PP released (mg)/1″ catheter ([2]; treatment 2 hrs (100% PG, 9% MP, 2% PP), time 11 days): 0.264 mg/1″ catheter
- Total PP released (mg)/1″ catheter ([2]; treatment 2 hrs (100% PG, 9% MP, 2% PP), time 13 days): 0.288 mg/1″ catheter
- Total PP released (mg)/1″ catheter ([2]; treatment 2 hrs (100% PG, 9% MP, 2% PP), time 15 days): 0.311 mg/1″ catheter
- Total PP released (mg)/1″ catheter ([2]; treatment 2 hrs (100% PG, 9% MP, 2% PP), time 18 days): 0.332 mg/1″ catheter
- Total PP released (mg)/1″ catheter ([2]; treatment 2 hrs (100% PG, 9% MP, 2% PP), time 22 days): 0.352 mg/1″ catheter
- Total PP released (mg)/1″ catheter ([2]; treatment 2 hrs (100% PG, 9% MP, 2% PP), time 29 days): 0.37 mg/1″ catheter
- Total PP released (mg)/1″ catheter ([2]; treatment 2 hrs (100% PG, 9% MP, 2% PP), time 36 days): 0.387 mg/1″ catheter
- Total PP released (mg)/1″ catheter ([2]; treatment 2 hrs (100% PG, 9% MP, 2% PP), time 50 days): 0.404 mg/1″ catheter
- Total PP released (mg)/1″ catheter ([2]; treatment 2 hrs (100% PG, 9% MP, 2% PP), time 67 days): 0.417 mg/1″ catheter
- Total PP released (mg)/1″ catheter ([2]; treatment 2 hrs (100% PG, 9% MP, 2% PP), time 81 days): 0.429 mg/1″ catheter
- Total PP released (mg)/1″ catheter ([2]; treatment 4 hrs (100% PG, 9% MP, 2% PP), time 1 hour): 0.007 mg/1″ catheter
- Total PP released (mg)/1″ catheter ([2]; treatment 4 hrs (100% PG, 9% MP, 2% PP), time 3 hours): 0.069 mg/1″ catheter
- Total PP released (mg)/1″ catheter ([2]; treatment 4 hrs (100% PG, 9% MP, 2% PP), time 7 hours): 0.138 mg/1″ catheter
- Total PP released (mg)/1″ catheter ([2]; treatment 4 hrs (100% PG, 9% MP, 2% PP), time 24 hours): 0.208 mg/1″ catheter
- Total PP released (mg)/1″ catheter ([2]; treatment 4 hrs (100% PG, 9% MP, 2% PP), time 4 days): 0.254 mg/1″ catheter
- Total PP released (mg)/1″ catheter ([2]; treatment 4 hrs (100% PG, 9% MP, 2% PP), time 5 days): 0.293 mg/1″ catheter
- Total PP released (mg)/1″ catheter ([2]; treatment 4 hrs (100% PG, 9% MP, 2% PP), time 6 days): 0.326 mg/1″ catheter
- Total PP released (mg)/1″ catheter ([2]; treatment 4 hrs (100% PG, 9% MP, 2% PP), time 8 days): 0.362 mg/1″ catheter
- Total PP released (mg)/1″ catheter ([2]; treatment 4 hrs (100% PG, 9% MP, 2% PP), time 11 days): 0.393 mg/1″ catheter
- Total PP released (mg)/1″ catheter ([2]; treatment 4 hrs (100% PG, 9% MP, 2% PP), time 13 days): 0.424 mg/1″ catheter
- Total PP released (mg)/1″ catheter ([2]; treatment 4 hrs (100% PG, 9% MP, 2% PP), time 15 days): 0.45 mg/1″ catheter
- Total PP released (mg)/1″ catheter ([2]; treatment 4 hrs (100% PG, 9% MP, 2% PP), time 18 days): 0.476 mg/1″ catheter
- Total PP released (mg)/1″ catheter ([2]; treatment 4 hrs (100% PG, 9% MP, 2% PP), time 22 days): 0.497 mg/1″ catheter
- Total PP released (mg)/1″ catheter ([2]; treatment 4 hrs (100% PG, 9% MP, 2% PP), time 29 days): 0.518 mg/1″ catheter
- Total PP released (mg)/1″ catheter ([2]; treatment 4 hrs (100% PG, 9% MP, 2% PP), time 36 days): 0.539 mg/1″ catheter
- Total PP released (mg)/1″ catheter ([2]; treatment 4 hrs (100% PG, 9% MP, 2% PP), time 50 days): 0.569 mg/1″ catheter
- Total PP released (mg)/1″ catheter ([2]; treatment 4 hrs (100% PG, 9% MP, 2% PP), time 67 days): 0.585 mg/1″ catheter
- Total PP released (mg)/1″ catheter ([2]; treatment 4 hrs (100% PG, 9% MP, 2% PP), time 81 days): 0.6 mg/1″ catheter
- Total PP released (mg)/1″ catheter ([2]; treatment 9 hrs (100% PG, 9% MP, 2% PP), time 1 hour): 0.082 mg/1″ catheter
- Total PP released (mg)/1″ catheter ([2]; treatment 9 hrs (100% PG, 9% MP, 2% PP), time 3 hours): 0.124 mg/1″ catheter
- Total PP released (mg)/1″ catheter ([2]; treatment 9 hrs (100% PG, 9% MP, 2% PP), time 7 hours): 0.175 mg/1″ catheter
- Total PP released (mg)/1″ catheter ([2]; treatment 9 hrs (100% PG, 9% MP, 2% PP), time 24 hours): 0.221 mg/1″ catheter
- Total PP released (mg)/1″ catheter ([2]; treatment 9 hrs (100% PG, 9% MP, 2% PP), time 4 days): 0.279 mg/1″ catheter
- Total PP released (mg)/1″ catheter ([2]; treatment 9 hrs (100% PG, 9% MP, 2% PP), time 5 days): 0.331 mg/1″ catheter
- Total PP released (mg)/1″ catheter ([2]; treatment 9 hrs (100% PG, 9% MP, 2% PP), time 6 days): 0.375 mg/1″ catheter
- Total PP released (mg)/1″ catheter ([2]; treatment 9 hrs (100% PG, 9% MP, 2% PP), time 8 days): 0.422 mg/1″ catheter
- Total PP released (mg)/1″ catheter ([2]; treatment 9 hrs (100% PG, 9% MP, 2% PP), time 11 days): 0.463 mg/1″ catheter
- Total PP released (mg)/1″ catheter ([2]; treatment 9 hrs (100% PG, 9% MP, 2% PP), time 13 days): 0.5 mg/1″ catheter
- Total PP released (mg)/1″ catheter ([2]; treatment 9 hrs (100% PG, 9% MP, 2% PP), time 15 days): 0.533 mg/1″ catheter
- Total PP released (mg)/1″ catheter ([2]; treatment 9 hrs (100% PG, 9% MP, 2% PP), time 18 days): 0.565 mg/1″ catheter
- Total PP released (mg)/1″ catheter ([2]; treatment 9 hrs (100% PG, 9% MP, 2% PP), time 22 days): 0.594 mg/1″ catheter
- Total PP released (mg)/1″ catheter ([2]; treatment 9 hrs (100% PG, 9% MP, 2% PP), time 29 days): 0.622 mg/1″ catheter
- Total PP released (mg)/1″ catheter ([2]; treatment 9 hrs (100% PG, 9% MP, 2% PP), time 36 days): 0.65 mg/1″ catheter
- Total PP released (mg)/1″ catheter ([2]; treatment 9 hrs (100% PG, 9% MP, 2% PP), time 50 days): 0.687 mg/1″ catheter
- Total PP released (mg)/1″ catheter ([2]; treatment 9 hrs (100% PG, 9% MP, 2% PP), time 67 days): 0.708 mg/1″ catheter
- Total PP released (mg)/1″ catheter ([2]; treatment 9 hrs (100% PG, 9% MP, 2% PP), time 81 days): 0.727 mg/1″ catheter
